From patent US20140018347A1, “BENZOXAZEPINES AS INHIBITORS OF mTOR AND METHODS OF THEIR USE AND MANUFACTURE” (Exelixis, Inc., priority 2010, published 2014)

How the values were obtained:
mTORC1 = mTORC1 (Homo sapiens, UniProt P42345); assay: mTOR/GbL/Raptor (mTORC1) ELISA Assay; format: biochemical; conditions: phosphorylation of 4E-BP1; 0.2 nM mTORC1, 10 μM ATP
Method: The measurement of mTORC1 enzyme activity was performed in an ELISA assay format following the phosphorylation of 4E-BP1 protein. All experiments were performed in the 384-well format. Generally, 0.5 μL DMSO containing varying concentrations of the test compound was mixed with 15 μL enzyme solution. Kinase reactions were initiated with the addition of 15 μL of substrates-containing solution. The assay conditions were as follows; 0.2 nM mTORC1, 10 μM ATP and 50 nM NHis-tagged 4E-BP1 in 20 mM Hepes, pH 7.2, 1 mM DTT, 50 mM NaCl, 10 mM MnCl2, 0.02 mg/mL BSA, 0.01% CHAPS, 50 mM β-glycerophosphate. Following an incubation of 120 minutes at ambient temperature, 20 μL of the reaction volume was transferred to a Ni-Chelate-coated 384-well plate. The binding step of the 4E-BP1 protein proceeded for 60 minutes, followed by washing 4 times each with 50 μL of Tris-buffered saline solution (TBS). Anti-phospho-4E-BP1 rabbit-IgG (20 μL, 1:5000) in 5% BSA-TBST (0.2% Tween-20 in TBS) was added and further incubated for 60 minutes. Incubation with a secondary HRP-tagged anti-IgG was similarly performed after washing off the primary antibody (4 washes of 50 μL). Following the final wash step with TBST, 20 μL of SuperSignal ELISA Femto (Pierce Biotechnology) was added and the luminescence measured using an EnVision plate reader.

PI3Kalpha = PI3Kalpha (Homo sapiens, UniProt P42336); assay: PI3K Biochemical Assays (PI3K-alpha assay); conditions: ATP consumption, luciferase-luciferin; 1 μM ATP, 10 μM PIP2
Method: PI3Kn activity was measured as the percent of ATP consumed following the kinase reaction using luciferase-luciferin-coupled chemiluminescence. Reactions were conducted in 384-well white, medium binding microtiter plates (Greiner). Kinase reactions were initiated by combining test compounds, ATP, substrate (PIP2), and kinase in a 20 μL volume in a buffer solution. The standard PI3Kalpha assay buffer was composed 50 mM Tris, pH 7.5, 1 mM EGTA, 10 mM MgCl2, 1 mM DTT and 0.03% CHAPS. The standard assay concentrations for enzyme, ATP, and substrate were 3 nM, 1 μM, and 10 μM, respectively. The reaction mixture was incubated at ambient temperature for approximately 2 h. Following the kinase reaction, a 10 μL aliquot of luciferase-luciferin mix (Promega Kinase-Glo) was added and the chemiluminescence signal measured using a Victor2 or EnVision (Perkin Elmer). Total ATP consumption was limited to 40-60% and IC50 values of control compounds correlate well with literature references. Substituting PI3Kα with PI3Krβ, PI3Kγ, or PI3Kδ, the inhibitory activity of the compounds for the other isoforms of PI3K were measured. For the PI3Kβ and PI3Kδ assays, enzyme concentrations were 10 nM and 4 nM, respectively. For the PI3Kγ assay, enzyme concentration was 40 nM, the incubation time was 1 h, and the concentration of MgCl2 in the assay buffer was 5 mM.

Chain of PI3Kalpha (P42336 whole entry): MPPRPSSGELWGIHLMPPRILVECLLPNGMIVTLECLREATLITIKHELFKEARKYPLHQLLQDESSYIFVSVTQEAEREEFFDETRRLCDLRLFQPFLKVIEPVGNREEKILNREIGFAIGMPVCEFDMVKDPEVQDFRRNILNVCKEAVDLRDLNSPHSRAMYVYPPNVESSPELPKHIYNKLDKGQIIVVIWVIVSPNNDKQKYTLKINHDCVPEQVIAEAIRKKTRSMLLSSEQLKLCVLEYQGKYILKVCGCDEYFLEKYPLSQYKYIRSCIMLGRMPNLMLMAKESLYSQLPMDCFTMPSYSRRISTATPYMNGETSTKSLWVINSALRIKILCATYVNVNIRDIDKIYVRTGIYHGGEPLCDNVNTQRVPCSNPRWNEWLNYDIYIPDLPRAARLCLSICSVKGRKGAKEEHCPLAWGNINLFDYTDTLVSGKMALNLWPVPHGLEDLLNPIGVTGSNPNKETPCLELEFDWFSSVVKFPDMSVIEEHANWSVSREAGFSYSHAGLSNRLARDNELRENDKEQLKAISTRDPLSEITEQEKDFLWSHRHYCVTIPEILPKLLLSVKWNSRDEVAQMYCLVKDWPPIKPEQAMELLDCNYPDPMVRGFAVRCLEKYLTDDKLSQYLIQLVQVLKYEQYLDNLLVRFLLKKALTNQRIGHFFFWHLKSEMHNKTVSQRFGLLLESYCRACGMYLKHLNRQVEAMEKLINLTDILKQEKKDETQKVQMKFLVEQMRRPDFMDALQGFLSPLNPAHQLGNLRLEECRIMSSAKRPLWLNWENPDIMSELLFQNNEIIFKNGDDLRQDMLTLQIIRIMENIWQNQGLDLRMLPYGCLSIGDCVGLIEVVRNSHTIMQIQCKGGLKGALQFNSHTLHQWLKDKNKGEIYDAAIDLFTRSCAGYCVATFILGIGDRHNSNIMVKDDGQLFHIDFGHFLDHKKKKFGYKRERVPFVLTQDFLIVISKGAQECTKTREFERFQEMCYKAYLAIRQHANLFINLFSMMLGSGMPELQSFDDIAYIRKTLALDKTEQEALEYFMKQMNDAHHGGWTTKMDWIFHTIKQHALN
Chain of PI3Kalpha (P27986 whole entry partner): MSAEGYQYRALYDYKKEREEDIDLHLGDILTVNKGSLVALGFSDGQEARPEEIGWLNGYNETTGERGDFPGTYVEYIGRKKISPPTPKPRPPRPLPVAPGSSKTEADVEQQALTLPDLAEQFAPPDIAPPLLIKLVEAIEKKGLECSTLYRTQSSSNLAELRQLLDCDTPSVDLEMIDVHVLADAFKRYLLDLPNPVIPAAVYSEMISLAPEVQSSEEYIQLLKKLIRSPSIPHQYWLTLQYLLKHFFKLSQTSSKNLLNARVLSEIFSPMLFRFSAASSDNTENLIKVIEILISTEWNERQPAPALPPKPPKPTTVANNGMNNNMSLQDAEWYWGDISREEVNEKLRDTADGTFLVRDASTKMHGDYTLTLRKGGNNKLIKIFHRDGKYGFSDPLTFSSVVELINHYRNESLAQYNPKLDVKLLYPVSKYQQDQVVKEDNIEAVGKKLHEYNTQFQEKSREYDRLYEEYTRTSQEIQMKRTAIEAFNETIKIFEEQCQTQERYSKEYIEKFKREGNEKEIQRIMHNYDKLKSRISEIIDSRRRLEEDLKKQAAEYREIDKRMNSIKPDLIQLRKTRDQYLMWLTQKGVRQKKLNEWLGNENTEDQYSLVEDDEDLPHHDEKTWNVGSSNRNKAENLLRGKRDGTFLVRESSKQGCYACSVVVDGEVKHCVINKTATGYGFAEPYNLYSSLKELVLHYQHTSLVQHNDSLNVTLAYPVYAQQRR

IC50 (mTORC1) [µM]	IC50 (PI3Kalpha) [µM]	SMILES
0.1 to 0.5	≤ 0.1	CNc1nc(N)nc(N2CCOc3ccc(-c4cnc5sc(N)nc5c4)cc3C2)c1C [Compound 63, 6-[7-(2-amino[1,3]thiazolo[5,4-b]pyridin-6-yl)-2,3-dihydro-1,4-benzoxazepin-4(5H)-yl]-N~4~,5-dimethylpyrimidine-2,4-diamine]
≤ 0.1	≤ 0.1	CCN(CC)Cc1nc(C)c(C(C)C)c(N2CCOc3ccc(-c4cnc5sc(N)nc5c4)cc3C2)n1 [Compound 4, 6-(4-{2-[(diethylamino)methyl]-6-methyl-5-(1-methylethyl)pyrimidin-4-yl}-2,3,4,5-tetrahydro-1,4-benzoxazepin-7-yl)[1,3]thiazolo[5,4-b]pyridin-2-amine]
0.1 to 0.5	0.1 to 0.5	Nc1nc2cc(-c3ccc4c(c3)CN(c3ncc(C(F)(F)F)c(N)n3)CCO4)cnc2s1 [Compound 81, 6-{4-[4-amino-5-(trifluoromethyl)pyrimidin-2-yl]-2,3,4,5-tetrahydro-1,4-benzoxazepin-7-yl}[1,3]thiazolo[5,4-b]pyridin-2-amine]
≤ 0.1	≤ 0.1	CC1(C)CCc2nc(CC#N)nc(N3CCOc4ccc(-c5cnc6sc(N)nc6c5)cc4C3)c2C1 [Compound 60, {4-[7-(2-amino[1,3]thiazolo[5,4-b]pyridin-6-yl)-2,3-dihydro-1,4-benzoxazepin-4(5H)-yl]-6,6-dimethyl-5,6,7,8-tetrahydroquinazolin-2-yl}acetonitrile]
0.1 to 0.5	≤ 0.1	Nc1cc(N2CCOc3ccc(-c4cnc5sc(N)nc5c4)cc3C2)nc(N)n1 [Compound 80, 6-[7-(2-amino[1,3]thiazolo[5,4-b]pyridin-6-yl)-2,3-dihydro-1,4-benzoxazepin-4(5H)-yl]pyrimidine-2,4-diamine]
≤ 0.1	≤ 0.1	Nc1nc2c(c(N3CCOc4ccc(-c5cnc6sc(N)nc6c5)cc4C3)n1)CCC2 [Compound 15, 6-[4-(2-amino-6,7-dihydro-5H-cyclopenta[d]pyrimidin-4-yl)-2,3,4,5-tetrahydro-1,4-benzoxazepin-7-yl][1,3]thiazolo[5,4-b]pyridin-2-amine]
≤ 0.1	≤ 0.1	C#CCc1c(C)nc(N)nc1N1CCOc2ccc(-c3cnc4sc(N)nc4c3)cc2C1 [Compound 71, 6-[4-(2-amino-6-methyl-5-prop-2-yn-1-ylpyrimidin-4-yl)-2,3,4,5-tetrahydro-1,4-benzoxazepin-7-yl][1,3]thiazolo[5,4-b]pyridin-2-amine]
≤ 0.1	≤ 0.1	Cc1nc(CNCCF)nc(N2CCOc3ccc(-c4cnc5sc(N)nc5c4)cc3C2)c1C(C)C [Compound 82, 6-{4-[2-{[(2-fluoroethyl)amino]methyl}-6-methyl-5-(1-methylethyl)pyrimidin-4-yl]-2,3,4,5-tetrahydro-1,4-benzoxazepin-7-yl}[1,3]thiazolo[5,4-b]pyridin-2-amine]
≤ 0.1	≤ 0.1	CC1=CC(C)(C)Cc2c1nc(N)nc2N1CCOc2ccc(-c3cnc4sc(N)nc4c3)cc2C1 [Compound 97, 4-[7-(2-amino[1,3]thiazolo[5,4-b]pyridin-6-yl)-2,3-dihydro-1,4-benzoxazepin-4(5H)-yl]-6,6,8-trimethyl-5,6-dihydroquinazolin-2-amine]
0.1 to 0.5	0.1 to 0.5	CCOC(=O)c1cnc(N)nc1N1CCOc2ccc(-c3cnc4sc(N)nc4c3)cc2C1 [Compound 48, ethyl 2-amino-4-[7-(2-amino[1,3]thiazolo[5,4-b]pyridin-6-yl)-2,3-dihydro-1,4-benzoxazepin-4(5H)-yl]pyrimidine-5-carboxylate]
≤ 0.1	≤ 0.1	CCCc1c(Cl)nc(N)nc1N1CCOc2ccc(-c3cnc4sc(N)nc4c3)cc2C1 [Compound 9, 6-[4-(2-amino-6-chloro-5-propylpyrimidin-4-yl)-2,3,4,5-tetrahydro-1,4-benzoxazepin-7-yl][1,3]thiazolo[5,4-b]pyridin-2-amine]
≤ 0.1	≤ 0.1	Cc1nc(N)nc(N2CCOc3ccc(-c4cnc5sc(N)nc5c4)cc3C2)c1C(C)C [Compound 100]
≤ 0.1	0.1 to 0.5	Cc1nc(NS(C)(=O)=O)nc(N2CCOc3ccc(-c4cnc5sc(N)nc5c4)cc3C2)c1C(C)C [Compound 23, N-{4-(7-(2-amino[1,3]thiazolo[5,4-b]pyridin-6-yl)-2,3-dihydro-1,4-benzoxazepin-4(5H)-yl]-6-methyl-5-(1-methylethyl)pyrimidin-2-yl}methanesulfonamide]
0.1 to 0.5	≤ 0.1	Cc1nc(N)nc(N2CCOc3ccc(-c4cnc5sc(N)nc5c4)cc3C2)c1CCC#N [Compound 44, 3-{2-amino-4-[7-(2-amino[1,3]thiazolo[5,4-b]pyridin-6-yl)-2,3-dihydro-1,4-benzoxazepin-4(5H)-yl]-6-methylpyrimidin-5-yl}propanenitrile]
0.1 to 0.5	≤ 0.1	COCCc1c(C)nc(CN(C)C)nc1N1CCOc2ccc(-c3cnc4sc(N)nc4c3)cc2C1 [Compound 13, 6-(4-{2-[(dimethylamino)methyl]-6-methyl-5-[2-(methyloxy)ethyl]pyrimidin-4-yl}-2,3,4,5-tetrahydro-1,4-benzoxazepin-7-yl)[1,3]thiazolo[5,4-b]pyridin-2-amine]
≤ 0.1	≤ 0.1	CC(C)c1cnc(N)nc1N1CCOc2ccc(-c3cnc4sc(N)nc4c3)cc2C1 [Compound 95, 6-{4-[2-amino-5-(1-methylethyl)pyrimidin-4-yl]-2,3,4,5-tetrahydro-1,4-benzoxazepin-7-yl}[1,3]thiazolo[5,4-b]pyridin-2-amine]
≤ 0.1	≤ 0.1	C=Cc1c(Cl)nc(N)nc1N1CCOc2ccc(-c3cnc4sc(N)nc4c3)cc2C1 [Compound 11, 6-[4-(2-amino-6-chloro-5-ethenylpyrimidin-4-yl)-2,3,4,5-tetrahydro-1,4-benzoxazepin-7-yl][1,3]thiazolo[5,4-b]pyridin-2-amine]
≤ 0.1	≤ 0.1	Cc1nc(CN(C)C)nc(N2CCOc3ccc(-c4cnc5sc(N)nc5c4)cc3C2)c1CC1CC1 [Compound 27, 6-(4-{5-(cyclopropylmethyl)-2-[(dimethylamino)methyl]-6-methylpyrimidin-4-yl}-2,3,4,5-tetrahydro-1,4-benzoxazepin-7-yl)[1,3]thiazolo[5,4-b]pyridin-2-amine]
≤ 0.1	≤ 0.1	Cc1nc(S(C)(=O)=O)nc(N2CCOc3ccc(-c4cnc5sc(N)nc5c4)cc3C2)c1C(C)C [Compound 24, 6-{4-[6-methyl-5-(1-methylethyl)-2-(methylsulfonyl)pyrimidin-4-yl]-2,3,4,5-tetrahydro-1,4-benzoxazepin-7-yl}[1,3]thiazolo[5,4-b]pyridin-2-amine]
0.1 to 0.5	≤ 0.1	CCc1c(C)nc(CN(C)C)nc1N1CCOc2ccc(-c3cnc4sc(N)nc4c3)cc2C1 [Compound 1, 6-(4-{2-[(dimethylamino)methyl]-5-ethyl-6-methylpyrimidin-4-yl)-2,3,4,5-tetrahydro-1,4-benzoxazepin-7-yl)[1,3]thiazolo[5,4-b]pyridin-2-amine]
≤ 0.1	–	CNc1nc(C)c(C(C)C)c(N2CCOc3ccc(-c4cnc5sc(N)nc5c4)cc3C2)n1 [Compound 92, 6-{4-[6-methyl-2-(methylamino)-5-(1-methylethyl)pyrimidin-4-yl]-2,3,4,5-tetrahydro-1,4-benzoxazepin-7-yl}[1,3]thiazolo[5,4-b]pyridin-2-amine]
